EC50 and IC50 data for 13 compounds are collected here from patent US20260138988A1, “Spiropyrrolidine Derived Antiviral Agents” (Enanta Pharmaceuticals, Inc., priority 2021, published 2026).

Assay [1] has as its system 229E human corona virus (hCoV). In words: 229E live virus assay (MRC-5 cells, CPE, ATPlite readout). The following applies: Human coronavirus 229E, MRC5, 144 h, read-out: 229E EC50. Format: cell-based, hCoV-229E. In general terms: ATP-based viability assays read luminescence as a measure of living cells.
Assay [2] concerns the target SARS-CoV-2 3CL-protease (Severe acute respiratory syndrome coronavirus 2, UniProt P0DTD1). In words: SARS-CoV-2 3C-Like (3CL) Protease Fluorescence Assay (FRET). Format: biochemical. The note with it: test compounds 0-10 μM, duplicate.
The mark [3] stands for this setting: hCoV-229E in MRC-5 cells, MOI 0.05, 6 days at 34° C., ATPlite, run in duplicate.
Where [4] appears, read: SARS-CoV-2 3CL-protease 10 nM, read-out: IC50.

The structures appear in SMILES notation. Read-outs that look alike come from different tables or passages of the source. Some results are limits rather than exact numbers.

For the compound `C[C@@H](C(=O)N(C)[C@@H](CC(C)(C)C)C(=O)N1C[C@]2(C[C@H]1C#N)C(=O)Nc1ccccc12)n1cc(C2CC2)nn1` [Example 157], the EC50 in assay [1] (setting [3]) was less than 0.1 µM. The IC50 in assay [2] (setting [4]) was less than 0.1 µM.
`Cc1cccc(C)c1C(=O)N[C@@H](C)C(=O)N(C)[C@@H](CC(C)C)C(=O)N1C[C@]2(C[C@H]1C#N)C(=O)Nc1ccccc12` [Example 148]: the EC50 in assay [1] (setting [3]) was less than 0.1 µM. Moreover, in assay [2] (setting [4]), the half-inhibitory concentration (IC50) was less than 0.1 µM.
Take `CC(C)C[C@@H](C(=O)N1C[C@]2(C[C@H]1C#N)C(=O)Nc1ccccc12)N(C)C(=O)[C@@H]1CC[C@@H](c2ccccc2)N1` [Example 158]: the EC50 in assay [1] (setting [3]) was less than 0.1 µM. In assay [2] (setting [4]), the IC50 was less than 0.1 µM.
For `CC(C)C[C@@H](C(=O)N1C[C@]2(C[C@H]1C#N)C(=O)Nc1ccccc12)N(C)C(=O)[C@@H]1CC[C@@H](c2ccccc2)N1C(C)C` [Example 162], in assay [1] (setting [3]), the EC50 was less than 0.1 µM. For the same compound, the IC50 in assay [2] (setting [4]) was less than 0.1 µM.
With `C[C@H](NC(=O)c1ccc(OC(F)(F)F)cc1)C(=O)N(C)[C@@H](CC(C)(C)C)C(=O)N1C[C@]2(C[C@H]1C#N)C(=O)Nc1ccccc12` [Example 153], the EC50 in assay [1] (setting [3]) was less than 0.1 µM. For the same compound, the IC50 in assay [2] (setting [4]) was less than 0.1 µM.
In the case of `C[C@H](NC(=O)c1ccc(F)c(F)c1)C(=O)N(C)[C@@H](CC(C)(C)C)C(=O)N1C[C@]2(C[C@H]1C#N)C(=O)Nc1ccccc12` [Example 156], the half-maximal effective concentration (EC50) in assay [1] (setting [3]) was less than 0.1 µM. Also, in assay [2] (setting [4]), the half-inhibitory concentration (IC50) is less than 0.1 µM.
As to `C[C@H](NC(=O)c1ccc(F)c(Cl)c1)C(=O)N(C)[C@@H](CC(C)(C)C)C(=O)N1C[C@]2(C[C@H]1C#N)C(=O)Nc1ccccc12` [Example 155], the EC50 in assay [1] (setting [3]) was less than 0.1 µM. Also, the half-inhibitory concentration (IC50) in assay [2] (setting [4]) is less than 0.1 µM.
Regarding `CC(C)C[C@@H](C(=O)N1C[C@]2(C[C@H]1C#N)C(=O)Nc1ccccc12)N(C)C(=O)[C@@H]1CC[C@H](c2ccccc2)N1` [Example 159], the EC50 in assay [1] (setting [3]) was in the range of 0.1 to 1 µM. In addition, the IC50 in assay [2] (setting [4]) is less than 0.1 µM.
The like results for `CC(C)C[C@@H](C(=O)N1C[C@]2(C[C@H]1C#N)C(=O)Nc1ccccc12)N(C)C(=O)[C@H](C)NC(=O)c1ccccc1-c1ccc(C(F)(F)F)cc1` [Example 150] were, in that order, 0.1 to 1 µM and less than 0.1 µM.
The like results for `Cc1cc(C(=O)N[C@@H](C)C(=O)N(C)[C@@H](CC(C)C)C(=O)N2C[C@]3(C[C@H]2C#N)C(=O)Nc2ccccc23)no1` [Example 166] were, in that order, less than 0.1 µM and less than 0.1 µM.
`CC(C)C[C@@H](C(=O)N1C[C@]2(C[C@H]1C#N)C(=O)Nc1ccccc12)N(C)C(=O)[C@H](C)NC(=O)c1ccc(F)cn1` [Example 164]: in assay [1] (setting [3]), the EC50 is less than 0.1 µM. In assay [2] (setting [4]), the IC50 was less than 0.1 µM.
Turning to `CC(C)C[C@H]1C(=O)N2C[C@]3(C[C@H]2C#N)C(=O)Nc2ccc(cc23)CCCCC[C@H](NC(=O)OC(C)(C)C)C(=O)N1C` [Example 373], the EC50 in assay [1] (setting [3]) fell in the range of 0.1 to 1 µM. Moreover, the IC50 in assay [2] (setting [4]) is less than 0.1 µM.
For the compound `CC(C)C[C@@H](C(=O)N1C[C@]2(C[C@H]1C#N)C(=O)Nc1ccccc12)N(C)C(=O)[C@H](C)NC(=O)C(F)(F)C(F)(F)C(F)(F)F` [Example 137], in assay [1], the EC50 is less than 0.1 µM. The IC50 in assay [2] (IC50, SARS-CoV-2 3CL-protease 10 nM) is less than 0.1 µM.

A word on the EC50: it is the concentration that produces a half-maximal response. For orientation: IC50 means the midpoint of a concentration-inhibition curve.
